Measurements taken from paper PMC4244111, “Structure of Putrescine Aminotransferase from Escherichia coli Provides Insights into the Substrate Specificity among Class III Aminotransferases” (PLoS ONE, 2014).

Target: T1, YgjG (Escherichia coli, UniProt P42588)
T1 construct: gene patA; full-length, C-terminal His6 tag, expressed in E. coli B834(DE3); homodimer; seven N-terminal and one C-terminal residues not visible
Assay: X-ray crystallography, […] Å
Type: binding
Details: crystal pH 7.5; covalent, Schiff base with Lys300; active site at dimer interface

T1 sequence (P42588 whole entry): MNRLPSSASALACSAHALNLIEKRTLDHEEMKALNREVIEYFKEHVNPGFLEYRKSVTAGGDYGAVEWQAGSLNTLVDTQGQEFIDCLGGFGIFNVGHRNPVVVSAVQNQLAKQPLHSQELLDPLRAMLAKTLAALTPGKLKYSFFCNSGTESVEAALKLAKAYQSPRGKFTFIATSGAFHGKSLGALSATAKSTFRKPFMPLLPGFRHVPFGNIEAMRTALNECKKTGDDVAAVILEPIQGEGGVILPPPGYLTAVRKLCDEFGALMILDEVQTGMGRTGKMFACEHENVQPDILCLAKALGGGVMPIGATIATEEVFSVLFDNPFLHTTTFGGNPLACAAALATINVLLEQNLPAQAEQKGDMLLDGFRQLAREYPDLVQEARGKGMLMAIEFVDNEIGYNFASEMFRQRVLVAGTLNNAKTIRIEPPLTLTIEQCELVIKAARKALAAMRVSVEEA

Cc1ncc(COP(=O)(O)O)c(C=O)c1O [pyridoxal-5′-phosphate]
X-ray crystallography, 2.3 Å: PLP is covalently linked to the strictly conserved lysine residue (Lys300) via a Schiff base linkage
